Test results as given in publication PMC9217908, “Screening of commonly prescribed drugs for effects on the CAT1-mediated transport of L-arginine and arginine derivatives” (Amino Acids, 2022).
Where two headings read alike, the source gives them in different places.

Tests used:
Assay in all cases: cell-based
[1] = target: T1, CAT1 (cationic amino acid transporter 1, CAT1/SLC7A1) (Homo sapiens, UniProt P30825); design: species or system HEK-CAT1 (HEK293 stably transfected); Inhibition of net CAT1-mediated [3H]-ADMA (1 uM) uptake, 2.5 min, scintillation counting, vector control subtracted; details: HEK293, ADMA 1 uM as substrate; for inhibition at 20 µM: read-out: % Inhibition of ADMA uptake at 20 µM; for inhibition at 200 µM: read-out: % Inhibition of ADMA uptake at 200 µM
T1 construct: full-length human transporter stably transfected in HEK cells (HEK-CAT1); net uptake against HEK-VC vector control cells
Method: (§1) Uptake and inhibition assays using HEK-CAT1 and HEK-VC cells and L-arginine, L-homoarginine, and ADMA as substrates were performed using the protocol described (Strobel et al. [2012]; Chafai et al. [2017]). Briefly, after incubation, the supernatant was replaced with transport buffer containing [^3H]- L-arginine for 5 min and 2.5 min for medium containing [^3H]-L-homoarginine or [^3H]-ADMA with or without the test compound. The reference drugs were screened at concentrations of 20 µM (Figs. 1A, 2A, and 3A) and 200 µM (Figs. 1B, 2B, and 3B). […] The net uptake was determined by subtracting the total amount taken up by control cells from the amount taken up by CAT1-expressing cells, which was expressed as a percentage of the amount taken up by the control. To determine the inhibitory effects of the drugs on CAT1-mediated transport of L-arginine, L-homoarginine, or ADMA, the control was measured in the absence of the potential inhibitor. The value for the percent inhibition was calculated as: Inhibition (%) = 100 – (V/V0 ^* 100), where V and V0 are the net uptake rates (uptake into HEK-CAT1 cells—uptake into HEK-VC cells) with and without test drugs, respectively. […] Each bar represents the effect of one compound on CAT1-mediated ADMA (1 μM) uptake as percent inhibition. Data were obtained from at least two independent experiments performed in triplicate (n = 6–9) and each test data from the independent experiment were normalized to the respective control data to get the value of percent inhibition. Negative inhibition values indicate stimulated CAT1-mediated uptake. Data were analyzed using one-way ANOVA and Dunnett’s multiple comparison test with p < 0.05. Bars showing a statistically significant inhibition or transport stimulation are shaded in black

[2] = target: T1, CAT1 (cationic amino acid transporter 1, CAT1/SLC7A1); design: species or system HEK-CAT1 (HEK293 stably transfected); Inhibition of net CAT1-mediated [3H]-L-arginine (100 uM) uptake, 5 min, scintillation counting, vector control subtracted; details: HEK293, L-arginine 100 uM as substrate; for inhibition at 20 µM: read-out: % Inhibition of L-arginine uptake at 20 µM; for inhibition at 200 µM: read-out: % Inhibition of L-arginine uptake at 200 µM
Method: as §1, with “L-arginine (100” for “ADMA (1”

[3] = target: T1, CAT1 (cationic amino acid transporter 1, CAT1/SLC7A1); design: species or system HEK-CAT1 (HEK293 stably transfected); Inhibition of net CAT1-mediated [3H]-L-homoarginine (1 uM) uptake, 2.5 min, scintillation counting, vector control subtracted; details: HEK293, L-homoarginine 1 uM as substrate; for inhibition at 20 µM: read-out: % Inhibition of L-homoarginine uptake at 20 µM; for inhibition at 200 µM: read-out: % Inhibition of L-homoarginine uptake at 200 µM
Method: as §1, with “CAT1-mediated L-homoarginine” for “CAT1-mediated ADMA”

T1 sequence (P30825 whole entry): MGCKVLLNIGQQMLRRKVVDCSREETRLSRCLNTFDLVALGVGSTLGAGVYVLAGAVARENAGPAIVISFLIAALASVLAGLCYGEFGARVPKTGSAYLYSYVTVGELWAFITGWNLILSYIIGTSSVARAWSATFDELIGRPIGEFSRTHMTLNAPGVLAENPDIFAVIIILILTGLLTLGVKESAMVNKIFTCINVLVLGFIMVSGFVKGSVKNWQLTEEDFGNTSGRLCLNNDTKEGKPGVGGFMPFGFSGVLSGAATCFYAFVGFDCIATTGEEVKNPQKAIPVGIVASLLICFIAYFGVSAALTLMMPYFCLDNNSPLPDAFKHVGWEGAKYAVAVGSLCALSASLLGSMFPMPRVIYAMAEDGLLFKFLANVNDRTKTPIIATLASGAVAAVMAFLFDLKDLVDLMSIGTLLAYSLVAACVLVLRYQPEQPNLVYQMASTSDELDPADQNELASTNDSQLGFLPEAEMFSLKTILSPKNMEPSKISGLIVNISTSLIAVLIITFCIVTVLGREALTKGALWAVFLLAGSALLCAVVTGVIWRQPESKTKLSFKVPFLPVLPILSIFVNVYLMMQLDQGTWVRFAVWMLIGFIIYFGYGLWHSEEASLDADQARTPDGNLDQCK

Row | Structure (SMILES) | inhibition at 20 µM [1] | inhibition at 200 µM [1] | inhibition at 20 µM [2] | inhibition at 200 µM [2] | inhibition at 20 µM [3] | inhibition at 200 µM [3]
1 | NS(=O)(=O)c1cc2c(cc1Cl)NCNS2(=O)=O [Hydrochlorothiazide] | 5.5 ± 2.2% | 9.9 ± 3.5% | 6 ± 3.9% | 20.7 ± 14.1% | 8.5 ± 4.8% | 7.9 ± 1.2%
2 | C[C@]12CCC(=O)C=C1CC[C@H]1[C@@H]3CC[C@](O)(C(=O)CO)[C@@]3(C)C[C@H](O)[C@@]12F [Fludrocortisone] | 0.5 ± 3.9% | -43.9 ± 4.9% | -29.4 ± 8.1% | -24.6 ± 1% | -27 ± 6.7% | -15.1 ± 0.6%
3 | C[C@]12C=CC(=O)C=C1CC[C@@H]1[C@@H]2C(=O)C[C@@]2(C)[C@H]1CC[C@]2(O)C(=O)CO [Prednisone] | -33.3 ± 2.3% | -16.9 ± 2.24% | 13.9 ± 3.4% | 19.1 ± 0.8% | 12.5 ± 2.7% | 13.2 ± 2.6%
4 | C[C@]12CCC(=O)C=C1CC[C@@H]1[C@@H]2[C@@H](O)C[C@@]2(C)[C@H]1CC[C@]2(O)C(=O)CO [Hydrocortisone] | -0.1 ± 2.8% | -9.9 ± 2.7% | 8.5 ± 4.8% | -4.3 ± 2.7% | 13.9 ± 9.6% | -9.5 ± 2.6%
5 | Cc1nccn1CC1CCc2c(c3ccccc3n2C)C1=O (stereo not shown) [Ondansetron] | -0.4 ± 5.9% | 10.1 ± 2.3% | 8.8 ± 7.9% | -5.7 ± 4.1% | -0.5 ± 5.9% | -8.3 ± 1.6%
6 | C=C[C@H]1CN2CC[C@H]1C[C@@H]2[C@@H](O)c1ccnc2ccc(OC)cc12 [Quinidine] | 4.4 ± 6.2% | -19.6 ± 7.7% | 29.1 ± 2.8% | 2.7 ± 1% | 4.4 ± 6.2% | 5.9 ± 1.9%
7 | NC12CC3CC(CC(C3)C1)C2 [Amantadine] | 5.3 ± 3% | -5.7 ± 11.1% | -14.2 ± 7.4% | -76 ± 4.5% | 11.9 ± 5.6% | -19.7 ± 2.6%
8 | CCN(CC)CCNC(=O)c1cc(Cl)c(N)cc1OC [Metoclopramide] | -3.2 ± 2.1% | 4.2 ± 9.4% | 7.5 ± 2.1% | 2.5 ± 3.5% | -6.3 ± 1.4% | 1.4 ± 3.2%
9 | c1ccc([C@H]2CN3CCSC3=N2)cc1 [Levamisole] | 18.9 ± 12.5% | -34.3 ± 2.4% | -18.4 ± 6.9% | -17.2 ± 5.1% | 19.6 ± 11.8% | -15.9 ± 3.8%
10 | CCCC1O[C@@H]2C[C@H]3[C@@H]4CCC5=CC(=O)C=C[C@]5(C)[C@H]4[C@@H](O)C[C@]3(C)[C@]2(C(=O)CO)O1 (stereo partly shown) [Budesonide] | -13.2 ± 3.7% | -47.7 ± 6.5% | -9.7 ± 7.8% | -6.4 ± 3.9% | -9.7 ± 5.5% | -4.9 ± 6.5%
11 | O=C(O[C@H]1C[C@H]2CC[C@@H](C1)[N+]21CCCC1)C(O)(c1ccccc1)c1ccccc1 [Trospium Chloride] |  | 3 ± 9.1% | 27.1 ± 2.1% | -23.8 ± 4.5% |  | -22.5 ± 2.3%
12 | C#C[C@]1(O)CC[C@H]2[C@@H]3CCC4=CC(=O)CC[C@@H]4[C@H]3CC[C@@]21C [Norethindrone] | -3.8 ± 1.6% | -3.1 ± 0.5% | 26.9 ± 5% | -19.7 ± 3.3% | 23.5 ± 4% | -12.8 ± 9.6%

Results, then the compound that gave them:

Row | inhibition at 20 µM [1] | inhibition at 200 µM [1] | inhibition at 20 µM [2] | inhibition at 200 µM [2] | inhibition at 20 µM [3] | inhibition at 200 µM [3] | Structure (SMILES)
13 | -27 ± 16.2% | -23.1 ± 8.2% | -6.1 ± 1.1% | -11.4 ± 2.6% | -35.1 ± 5.2% | -54.8 ± 6.9% | CCN(CC)CCCC(C)Nc1ccnc2cc(Cl)ccc12 (stereo not shown) [Chloroquine]
14 | -11 ± 8.1% | -8.9 ± 14.9% | 6.4 ± 4.4% | 1.5 ± 4.1% | 1.9 ± 5.4% | 0.8 ± 3.1% | COC(=O)[C@H](c1ccccc1Cl)N1CCc2sccc2C1 [Clopidogrel]
15 | 16.8 ± 2.5% | 8.1 ± 2.1% | 13.9 ± 3.4% | 14 ± 9.6% | 12.4 ± 2.8% | 10.1 ± 3% | COc1ccc(Cl)cc1C(=O)NCCc1ccc(S(=O)(=O)NC(=O)NC2CCCCC2)cc1 [Glibenclamide]
16 | -20.2 ± 5.9% | -44.8 ± 7.4% | -5.1 ± 3.6% | -33.7 ± 1.4% | -7.5 ± 2.1% | -26.1 ± 0.6% | CC(C)Cc1ccc(C(C)C(=O)O)cc1 (stereo not shown) [Ibuprofen]
17 | 5.4 ± 4.3% | 9.9 ± 4.5% | 22.3 ± 0.8% | -7.1 ± 2.1% | 19.5 ± 1% | -6.8 ± 0.9% | CN(Cc1cnc2nc(N)nc(N)c2n1)c1ccc(C(=O)N[C@@H](CCC(=O)O)C(=O)O)cc1 [Methotrexate]
18 | -14.7 ± 3.8% | -3.9 ± 3.4% | 6.6 ± 4.9% | 2.4 ± 1.6% | 8.1 ± 4.7% | 4.4 ± 0.7% | CC(=O)Nc1ccc(O)cc1 [Acetaminophen]
19 | -0.5 ± 5.8% | 6.1 ± 3.4% | 7.8 ± 1.8% | 2.9 ± 3.9% | -4 ± 0.4% | 6.8 ± 0.6% | CNC(=C[N+](=O)[O-])NCCSCc1ccc(CN(C)C)o1 [Ranitidine]
20 | -11.1 ± 2.3% | 11.6 ± 6.5% | 4.5 ± 1.9% | 23.4 ± 2.5% | -14.3 ± 2.1% | 14.3 ± 2.2% | C[C@@H]1CCC[C@H](C)N1NC(=O)c1ccc(Cl)c(S(N)(=O)=O)c1 [Clopamide]
